Data set [1] addresses T1, rat brain cholinesterase (total ChE) (Rattus norvegicus, UniProt P37136).
T1 construct: rows headed: Ki (dissociation constant for EI); other: rat brain total ChE; mean of 3-4 experiments; k+2 (carbamylation rate constant); other: from ki; rate of carba
T1 sequence (P37136 32-614): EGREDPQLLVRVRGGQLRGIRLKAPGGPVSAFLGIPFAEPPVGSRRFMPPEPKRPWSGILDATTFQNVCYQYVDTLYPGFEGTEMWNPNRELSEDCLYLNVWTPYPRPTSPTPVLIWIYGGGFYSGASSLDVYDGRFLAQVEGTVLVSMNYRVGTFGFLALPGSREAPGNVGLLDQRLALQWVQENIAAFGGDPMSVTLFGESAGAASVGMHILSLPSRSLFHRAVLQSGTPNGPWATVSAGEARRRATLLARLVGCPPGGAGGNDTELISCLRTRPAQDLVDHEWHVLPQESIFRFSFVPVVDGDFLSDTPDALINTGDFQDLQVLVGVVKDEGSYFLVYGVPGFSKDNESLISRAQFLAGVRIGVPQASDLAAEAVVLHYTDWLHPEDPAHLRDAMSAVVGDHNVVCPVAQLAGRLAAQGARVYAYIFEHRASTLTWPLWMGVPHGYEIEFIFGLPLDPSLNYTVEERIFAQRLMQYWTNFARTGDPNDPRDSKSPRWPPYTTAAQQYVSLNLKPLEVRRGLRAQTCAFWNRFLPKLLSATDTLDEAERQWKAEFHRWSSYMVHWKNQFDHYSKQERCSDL
The data set is described as follows: Kinetics of irreversible cholinesterase inhibition (Kitz-Wilson). It counts as biochemical. The settings on record: for kinact: pH 7.4, read-out: k+2 (carbamylation rate constant); for kinact/KI: pH 7.4, read-out: ki (second-order rate inhibition constant, approximated by k+2/Ki). As for the experimental part: To determine kinetic constants of irreversible inhibition, cholinesterase from rat brain homogenates was incubated with the multifunctional compounds of the invention for designed time intervals in phosphate buffer pH 7.4.
The residual cholinesterase activity was immediately measured with the Ellman's colorimetric method after addition of 5,5′-dithiobis(2-nitrobenzoic) acid and 1 mM acetylthiocholine iodide. The inhibition kinetics were assessed according to Kitz-Wilson equation:
[formula] wherein: E represents the enzyme; I represents the intact carbamate (inhibitor); EI is the initial reversible enzyme complex; E* is the carbamylated enzyme; Ki represents the dissociation constant for EI; k+2 is the carbamylation rate constant and k+3 is the decarbamylation rate constant; kapp is the pseudo-first-order inhibition rate constant; ki, the second-order rate inhibition constant, is approximated by k+2/Ki. Under experimental condition [I]>>[E0].
According to equation (2), the logarithm of the ratio of the residual cholinesterase activity (E) and the initial cholinesterase activity (E0) is plotted against the time of incubation. The slopes of the lines representing kapp were determined by linear regression.
The slopes of the lines represent the pseudo-first-order inhibition rate constant (kapp) determined from linear regression analysis. […] The carbamylation rate constant (k+2) was obtained from the y-intercept, and the dissociation constant ([…] was obtained from the slope of the line multiplied by k+2 as described in Materials and Methods.
From these lines, the values of kapp were calculated based on Equation (2) of the Kitz-Wilson equations (see Material and Methods). […] The carbamylation rate constant k+2 is a measure of inactivation of ChE.

Data set [2] relates to human SH-SY5Y neuroblastoma cells. The experiment in a line: MTT cell viability assay in SH-SY5Y cells. It counts as cell-based. Conditions: MTT after 48 h incubation. As for the experimental part: Cell culture. Human neuroblastoma SH-SY5Y cells were obtained from American Type Culture Collection (Rockville, Md., USA). Cells were routinely cultured in MEM-Eagle/F-12(HAM) (1:1), containing 10% FCS and a mixture of 2% sodium bicarbonate, 1% penicillin/streptomycin/nystatin and 1% sodium pyruvate. Cell cultures were incubated at 37° C. in a humid 5% CO2-95% air environment.
Twenty-four hours after attachment of the SH-SY5Y cells, the medium was replaced with DMEM containing 0.1% BSA. The test compounds were added to the cells after 1 h of incubation. After 24 h incubation, the cells were subjected to MTT test as previously described (Gassen et al., 1998). The absorption was determined in a Perkin-Elmer Dual Wavelength Eliza-Reader at λ=570/650 nm after automatic subtraction of background readings. The results are expressed as percentage of the untreated control.
The effect of the iron chelators M30 and HLA20 versus that of the pro-chelators 13 and 23, on viability of human SH-SY5Y cells was tested. Human SH-SY5Y neuroblastoma cells were plated in 100-mm culture dishes and cultured in DMEM (4,500 mg/l glucose), containing 10% FCS (fetal calf serum, Bet Haemek, Israel), and 1% of a mixture of penicillin/streptomycin/nystatin. When cells reached the required confluence, they were detached and re-cultured in microtiter plates (96 wells) pre-coated with collagen ([…]), in DMEM with 10% of fetal calf serum (0.5×10^4 cells/well). Cell viability was tested by the 3-(4,5-dimethylthiazol-2-yl)-2,5-diphenyltetrazolium (MTT) assays after 48 h incubation.
A general note: Tetrazolium dyes change colour on reduction, which living cells bring about.

A short description of data set [3]: Metal chelation assay (UV-vis spectra of metal complexes). It is filed as physicochemical. Conditions: 5% NH4Ac, pH=7; for complexation with Cu^2+ or Zn^2+: CuSO4 or ZnCl2, UV-vis; for interaction with Fe: FeCl3 or FeSO4, absorbance at 300 nm. An excerpt: Metal chelation, particularly iron chelation, is an important precondition for the antioxidative-function of the multi-functional compounds of the invention, because it is the excessive iron stores and iron-mediated generation of free radicals in the brain that are thought to be associated with neurodegenerative diseases. The novel strategy, according to the present invention, for the treatment of neurodegenerative diseases such as Alzheimer's disease is the design of pro-chelators that inhibit AChE with a concomitant release of the active chelators. This novel strategy has advantages over the current chelator strategy since it is capable not only of minimizing the potential toxicity associated with strong chelators such as the 8-hydroxyquinoline derivatives disclosed in WO 2004/041151, which might interfere with healthy metal metabolism in the brain, but it also offers multiple activities against AChE, Aβ aggregation, oxidative stress, and metal (Fe, Cu, Zn) dyshomeostasis in the brain. Therefore, a metal chelation assay was used to confirm that the new multifunctional pro-chelators that comprise an N,N-dialkylcarbamoyl moiety [N(RR′)CO—] linked to the oxygen at position 8 of quinoline would have little to no affinity for metal ions in their pro-drug form. When these pro-chelators bind to cholinesterase or AChE in the brain, the N,N-dialkylcarbamoyl moiety is dissociated, thus unmasking a free hydroxyl group at said position 8 of quinoline, turning the pro-chelators into active chelators, which passivate excess cerebral metal ions and protect neuronal cells against reactive oxygen species (ROS).
A spectrophotometric method was used for measurement of metal complexes of the multifunctional pro-chelators of the invention with metal ions selected from Zn^2+, Cu^2+, Fe^3+ and Fe^2+, and compared to the respective metal complexes of some known iron chelators disclosed in WO 2004/041151.
Thus, the metal chelating function of compound 13 and compound 23 as compared to M30 and HLA20, respectively, was measured by dissolving 0.1 mM or 0.2 mM of the test compounds in 5% NH4Ac, pH=7, in the presence and absence of 0.1 mM or 0.2 mM of the metal salts […], CuSO4, FeCl3 and FeSO4, and measuring the UV-vis spectra (Hewlett-Packard 8450A diode array spectrophotometer) of the various metal complexes formed. The results for M30 and compound 13 are shown in FIGS. 1A and 1B, respectively.

Five compounds from patent publication US8802675B2, “Neuroprotective multifunctional compounds and pharmaceutical compositions comprising them” (priority 2009, dated 2014) can be followed below.

With `C#CCN(C)Cc1ccc(OC(=O)N(C)CC)c2ncccc12` [Compound 3, 5-((methyl(propargyl)amino)methyl)quinolin-8-yl ethyl(methyl)carbamate], in data set [1], the kinact was 0.0045 s⁻¹ and the kinact/KI was 39 M⁻¹ s⁻¹.

Regarding `C#CCN(C)Cc1ccc(OC(=O)N2CCCC2)c2ncccc12` [Compound 5, 5-((methyl(propargyl)amino)methyl)quinolin-8-yl pyrrolidine-1-carboxylate], the “potency in inhibiting ChE relative to rivastigmine” value in data set [1] (from ki) is on record as “half potent”. In data set [1], the kinact is 0.00283 s⁻¹ and the kinact/KI is 41 M⁻¹ s⁻¹.

For orientation: cell viability means the share of living cells, or the viability signal relative to a control. As to `C#CCN(C)Cc1ccc(OC(=O)N2CCN(Cc3ccccc3)CC2)c2ncccc12` [Compound 13, 5-((methyl(propargyl)amino)methyl)quinolin-8-yl 4-benzyl piperazine-1-carboxylate], in data set [1], the kinact was 0.00167 s⁻¹ and the kinact/KI was 168 M⁻¹ s⁻¹. The cell viability result in data set [2] (10 μM) is recorded as “similar”. For the same compound, the cell viability result in data set [2] (25 μM) is reported as “significantly higher”. In addition, in data set [3], the “complexation with Cu^2+ or Zn^2+” value was “little or no complexation” and the “interaction with Fe” value is “weak interaction”.

As to `C#CCC1CCN(Cc2ccc(OC(=O)N(C)C)c3ncccc23)CC1` [Compound 23, 5-((4-(propargyl)piperidin-1-yl)methyl)quinolin-8-yl dimethylcarbamate], the kinact in data set [1] is 0.00233 s⁻¹. The kinact/KI in data set [1] is 242 M⁻¹ s⁻¹. Further, the cell viability entry in data set [2] (10 μM) is “over 75%”; in data set [2] (25 μM), “over 75%”; in data set [2] (50 μM) it was 40%. Besides, the “complexation with Cu^2+ or Zn^2+” value in data set [3] is on record as “little or no complexation”. In addition, in data set [3], the “interaction with Fe” value is given as “weak interaction”.

On to `C#CCN(C)Cc1ccc(O)c2ncccc12` [M30, reference compound], for which, in data set [2] (10 μM), the cell viability result is listed as “similar”. The “binding of metal ions (shift of absorbance peak)” value in data set [3] (ZnCl2, CuSO4, FeCl3 and FeSO4) is reported as “binds the respective metal ions”.
